Non-standard residues stand in square brackets, D forms with d. Residues, ends and D or L forms follow the SMILES beside them. αMeP = C[C@@]1(C(=O)O)CCCN1
Key:
MeCP2 deficient mice = assay: Seizure activity, electroencephalographic recordings; settings: mouse, in vivo
From the text: Because seizures are a prominent, hazardous and a difficult to treat aspect of Rett Syndrome, we determine the effects of G-2MePE on seizure activity in MeCP2 deficient animals. G-2-MePE can be effective in treating seizure activity in animals with neurodegenerative disease (U.S. Pat. No. 7,714,020). Therefore, we carry out experiments to determine whether G-2-MePE can also treat seizure activity in MeCP2 deficient mice. Electroencephalograpic recordings of wild-type mice and MeCP2 deficient mice treated with either saline or G-2-MePE are obtained using methods described in U.S. Pat. No. 7,714,020.

MeCP2 knockout mice = assay: Nocturnal activity measurements; assay type: in vivo, mouse; settings: 20 mg/kg i.p. daily; after 6 weeks
Description: For the survival measurements, the nocturnal activity analysis and the immunoblot analysis, G-2-MePE (synthesised Albany Molecular Research Inc. (Albany, N.Y.) and supplied by Neuren Pharmaceuticals Limited) is administered daily via intra-peritoneal injections (20 mg/kg, vehicle=saline, 0.01% BSA). The treatment starts at PI 5 and is maintained throughout the course of the experiments. For intracellular physiology experiments, the mice are injected daily with G-2-MePE (20 mg/kg body weight, vehicle=saline, 0.01% BSA) for 2 weeks, from P15 to P28-P32 when they are used for acute slice preparation. For optical imaging experiments, mice are injected with G-2-MePE (20 mg/kg body weight, vehicle=saline, 0.01% BSA) daily from the day of the lid suture to the day of imaging.
Spontaneous motor activity is measured by using an infrared beam-activated movement-monitoring chamber (Opto-Varimax-MiniA; Columbus Instruments, Columbus, Ohio). […] Movement is monitored during the normal 12-h dark cycle (7 p.m. to 7 a.m.). […]
MeCP2−/y mice develop Rett-like symptoms beginning at 4-6 weeks of age when they progressively become lethargic, develop gait ataxia and die between 10 and 12 weeks of age (Chen et al., 2001). Baseline locomotor activity is also recorded in mice after 6 weeks by counting nocturnal infrared beam crossing events within a caged area.

[1] = system: subjects with Rett Syndrome; assay: Placebo controlled study in subjects with Rett Syndrome; assay type: in vivo, human
From the text: Thirty subjects with Rett Syndrome are recruited, Subjects are female and aged between […] (Mean=12.1 SD=4.4). All subjects have an IQ<60 and mutations of the MECP2 gene. Subjects also show ether spike activity in the EEG or an increase in lower frequency bands of the BEG as detected by Fast Fourier Transform (FFT). Subjects are instructed that concomitant medications are to be stable for at least six weeks prior to study. Subjects receiving medication to treat signs of inattention are tested in the morning and instructed to take their medication in the afternoon. Subjects with QTc interval >451 msec are excluded.
The study is a randomized double blind placebo controlled parallel study with three doses of either placebo, 10 mg/kg T.I.D oral G-2-MePE for five days, or 30 mg/kg T.I.D. oral G-2-MePE.
Subjects are tested at baseline using the following instruments: The Rett Syndrome Natural History/Clinical Severity Scale, Aberrant Behavior Checklist Community Edition (ABC), Vinelands, Clinical Global Impression of Severity (CGI-S) and their carers completed the Caregiver Strain Questionnaire (CSQ).
Subjects are brought into clinic on an inpatient basis to enable initial baseline recordings of EEG, ECG and respiratory rate continuously for 24 hours using polysomnography technology. Hand movements are also recorded using the Q-Sensor™. Derived EEG measures include: spikes per unit time in the EEG, overall power of frequency bands of the EEG, QTc and heart rate variability (HRV), and respiratory irregularities.
Adverse events are also recorded using standard safety measures and the SMURF elicitation of adverse events
Statistically, the effect of treatment with G-2-MePE is analysed by conducting a repeated analysis of covariance (ANCOVA) on the effect of treatment on change from baseline scores.

[2] = 30 mg/kg T.I.D. oral, compared to placebo

## C[C@@]1(C(=O)N[C@@H](CCC(=O)O)C(=O)O)CCCN1C(=O)CN [Example G-2-MePE, Glycyl-L-2-methylprolyl-L-glutamic acid] (H-Gly-[αMeP]-Glu-OH)
MeCP2 deficient mice
  motor seizures: effective in decreasing
  non-convulsive seizures: effective in decreasing
MeCP2 knockout mice
  locomotor activity levels (nocturnal infrared beam crossing): elevates
[1]; [2]
  power of the delta band of the EEG: decreases
  spike activity: decreases
  subscales Nonverbal Communication, Epilepsy/Seizures, Hand use: significant effects
[1]; 10 or 30 mg/kg T.I.D. oral
  Serious Adverse Events: No Serious Adverse Events
  heart rate variability: No effects
  increases in QTC: No instances of increases
  respiratory rate: No effects
[1]; 10 or 30 mg/kg T.I.D. oral, vs placebo
  adverse events: no more adverse events than are present during treatment with placebo
[1]; Rett Syndrome population
  tolerability: well tolerated
[1]; overall
  Rett Syndrome Natural History/Clinical Severity Score: no significant effect overall
[1]; overall treatment effect
  spikes per unit time in the EEG: significant overall reduction
[1]; significant for the 30 mg/kg T.I.D. dose compared to placebo
  total hand movements per twenty-four hour period (Q-Sensor): reduces

Source: patent US9212204B2, “Treatment of rett syndrome using glycyl-L-2-methylprolyl-L-glutamic acid” (priority 2011, dated 2015)
